Measured values as given in patent US20250062039A1, “ESTIMATION OF PHARMACOKINETIC (PK) PARAMETERS OF DRUG CANDIDATES USING UNIVERSAL PK PARAMETERS BOUNDS” (Tata Consultancy Services Limited, priority 2023, published 2025).
Values joined by “and” are separate entries in the source; they are usually repeats but may differ in a detail not shown here. Identical values can stand only once. Like-named read-outs stand apart in the source and are kept apart here.

Assays:
[1] = human, in vivo, po, 500 mg
[2] = Oral 500 mg; cited from earlier work
[3] = clinical; details: human, in vivo, po, 500 mg
[4] = clinical; details: human, in vivo, iv
[5] = IV infusion 10 mg; cited from earlier work
[6] = 2 compartment model, cited from earlier work
[7] = clinical; details: human, in vivo, iv; for half-life: Selected Parameter Value
[8] = cited from earlier work; for Conc (plasma concentration): 200 mg intravenously, subject 68 kg; for Alpha / A: individual subjects W
[9] = Published cocaine pharmacokinetics in humans, IV bolus: parameters and PCT profile (Barnett et al. 1981)
[10] = in vivo, iv, 20 mg/kg
[11] = in vivo; details: non-human primates, iv, 20 mg/kg
[12] = IV Infusion, 4 mg for 5 minutes
[13] = 200 mg IV, two compartment model
[14] = IV bolus, Dose = 100 mg, X, Y, listed as Cocain
[15] = IV bolus, Dose = 200 mg, Z, listed as Cocain
[16] = IVBolus 200 mg, bi-exponential model (Table 6)

In the case of `CC[C@H]1OC(=O)[C@H](C)[C@@H](O[C@H]2C[C@@](C)(OC)[C@@H](O)[C@H](C)O2)[C@H](C)[C@@H](O[C@@H]2O[C@H](C)C[C@H](N(C)C)[C@H]2O)[C@](C)(O)C[C@@H](C)CN(C)[C@H](C)[C@@H](O)[C@]1(C)O` [Azithromycin], the “CL, Selected Parameter Value” [1] is reported as 280.35 mL/min, the “Vd beta, Selected Parameter Value” [1] is reported as 5475.92 L and the “Vss, Selected Parameter Value” [1] is reported as 4218.4 L. The “AUC, Maximum” value [2] was 6380 ng·h/mL, the “AUC, Mean Value” [2] was 4860 ng·h/mL and the “AUC, Minimum” value [2] was 3500 ng·h/mL. For the same molecule, the “CL, Mean Value” [2] was 664.84 mL/min, the “K10, Maximum” value [2] was 0.12 h⁻¹ and the “K10, Mean Value” [2] was 0.08 h⁻¹. For the same molecule, the “K10, Minimum” value [2] was 0.05 h⁻¹, the “K12, Maximum” value [2] was 0.18 h⁻¹ and the “K12, Mean Value” [2] was 0.12 h⁻¹. For the same molecule, the “K12, Minimum” value [2] was 0.07 h⁻¹, the “K21, Maximum” value [2] was 0.06 h⁻¹ and the “K21, Mean Value” [2] was 0.04 h⁻¹. For the same molecule, the “K21, Minimum” value [2] was 0.03 h⁻¹, the “Ke, Maximum” value [2] was 0.02 h⁻¹ and the “Ke, Mean Value” [2] was 0.02 h⁻¹. For the same molecule, the “Ke, Minimum” value [2] was 0.02 h⁻¹, the “T1/2 beta, Mean Value” [2] was 55.46 h and the “V1, Maximum” value [2] was 1025.35 L. For the same molecule, the “V1, Mean Value” [2] was 586.83 L, the “V1, Minimum” value [2] was 341.94 L and the “V2, Maximum” value [2] was 3193.05 L. The “V2, Mean Value” [2] was 1779.12 L, the “V2, Minimum” value [2] was 798.71 L and the “Vd beta, Mean Value” [2] was 3219.51 L. For the same molecule, the “Vss, Maximum” value [2] was 4218.4 L, the “Vss, Mean Value” [2] was 2347.95 L and the “Vss, Minimum” value [2] was 1018.78 L. It also gave an AUC [3] of 6380 ng·h/mL and a half-life [3] of 76.2 h.

In the case of `CC(C)NCC(O)COc1ccc(CCOCC2CC2)cc1` (stereo not drawn) [Betaxolol], the Vd [4] is given as 5.81 L/kg, the clearance [4] is given as 300 mL/min and the “AUC, Mean Value” [5] is given as 610 ng·h/mL. The “CL, Mean Value” [5] was 15.1 L/h, the “Lambda_Z, Mean Value” [5] was 0.0415 h⁻¹ and the “Vz, Mean Value” [5] was 5.07 L/kg.

In the case of `OC(CCN1CCCCC1)(c1ccccc1)C1CC2C=CC1C2` (stereo not drawn) [Biperiden], the “AUC, Value” [6, 12] is given as 62.8 ng·h/mL, the “CL, Value” [6, 12] is given as 24 mL/min/kg and the “K12, Value” [6, 12] is given as 0.1910 h⁻¹. The “K21, Value” [6, 12] was 0.06 h⁻¹, the “T1/2 Alpha, Value” [6, 12] was 1.5 h and the “T1/2 beta, Value” [6, 12] was 24.3 h. For the same molecule, the “V1, Value” [6, 12] was 2.6 L/kg, the “Ka, Value” ([6]; Oral 4 mg) was 2.18 h⁻¹ and the clearance [7] was 24.8 mL/min/kg. The half-life ([7]; T1/2 Alpha) was 1.7 h and the half-life ([7]; T1/2 beta) was 28.2 h.

For `COC(=O)[C@H]1[C@@H](OC(=O)c2ccccc2)C[C@@H]2CC[C@H]1N2C` [Cocaine], the “A, Published parameter value” [8, 13] is given as 2.482 µg/mL, the “Alpha, Published parameter value” [8, 13] is given as 3.192 h⁻¹ and the “B, Published parameter value” [8, 13] is given as 1.997 µg/mL. The “Beta, Published parameter value” [8, 13] was 0.505 h⁻¹, the “Conc (plasma concentration)” value ([8]; Time 0.08333333 hr) was 3868 ng/mL and the “Conc (plasma concentration)” value ([8]; Time 0.33333333 hr) was 2476 ng/mL. The “Conc (plasma concentration)” value ([8]; Time 0.65 hr) was 2031 ng/mL, the “Conc (plasma concentration)” value ([8]; Time 1 hr) was 1222 ng/mL and the “Conc (plasma concentration)” value ([8]; Time 2.13333333 hr) was 696 ng/mL. For the same molecule, the “Conc (plasma concentration)” value ([8]; Time 3.2 hr) was 453 ng/mL, the “Conc (plasma concentration)” value ([8]; Time 4.16666667 hr) was 219 ng/mL and the “Conc (plasma concentration)” value ([8]; Time 5.15 hr) was 145 ng/mL. For the same molecule, the “Conc (plasma concentration)” value ([8]; Time 6.15 hr) was 94 ng/mL, the Alpha ([8]; IV bolus, Dose = 100 mg, X, Y) was 0.0135 min⁻¹ and 0.0172 min⁻¹ and 0.0147 min⁻¹ and the A [8, 14] was 860 ng/mL and 558 ng/mL and 1139 ng/mL. For the same molecule, the Alpha [8, 14] was 0.0135 min⁻¹ and 0.0172 min⁻¹ and 0.0147 min⁻¹, the B ([8]; IV bolus, Dose = 200 mg, Sub-W) was 1997 ng/mL and the Beta ([8]; IV bolus, Dose = 200 mg, Sub-W) was 0.00842 min⁻¹. The Alpha ([8]; IV bolus, Dose = 200 mg, Z) was 0.0532 min⁻¹ and 0.00879 min⁻¹, the A [8, 15] was 2482 ng/mL and 1432 ng/mL and the Alpha [8, 15] was 0.0532 min⁻¹ and 0.00879 min⁻¹. The “A, Value” [8, 16] was 2482 ng/mL, the “Alpha, Value” [8, 16] was 0.05 min⁻¹ and the “B, Value” [8, 16] was 1997 ng/mL. For the same molecule, the Cmax ([8]; IVBolus 200 mg) was “(Cmax = 3868) ng/ml”, the “Alpha, Selected Value” ([9]; maximum over all subjects and doses 100, 200 mg (Rule 7)) was 0.0532 min⁻¹ and the “Beta, Selected Value” ([9]; maximum over all subjects and doses (Rule 7)) was 0.00842 min⁻¹.

In the case of `COc1cc(NCc2ccc3nc(N)nc(N)c3c2C)cc(OC)c1OC` [Trimetrexate], the “K10, Converted value” ([10]; non-human primate) is reported as 3.096 h⁻¹, the “K10, Selected Parameter Value” ([10]; non-human primate) is reported as 0.0516 min⁻¹ and the “K12, Converted value” ([10]; non-human primates) is reported as 0.87 h⁻¹. For the same molecule, the “K12, Selected Parameter Value” ([10]; non-human primates) was 0.0145 min⁻¹, the “K13, Converted value” ([10]; non-human primates) was 0.0075 h⁻¹ and the “K13, Selected Parameter Value” ([10]; non-human primates) was 0.000125 min⁻¹. The “K21, Converted value” ([10]; non-human primates) was 1.296 h⁻¹, the “K21, Selected Parameter Value” ([10]; non-human primates) was 0.0216 min⁻¹ and the “K31, Converted value” ([10]; non-human primates) was 0.093 h⁻¹. For the same molecule, the “K31, Selected Parameter Value” ([10]; non-human primates) was 0.00155 min⁻¹, the “V1, Converted value” ([10]; non-human primates) was 0.15 L/kg and the “V1, Selected Parameter Value” ([10]; non-human primates) was 0.15 L/kg. For the same molecule, the “V2, Converted value” ([10]; non-human primates) was 0.079 L/kg, the “V2, Selected Parameter Value” ([10]; non-human primates) was 0.079 L/kg and the “cl, Converted value” ([10]; non-human primates) was 0.252 L/h. It also gave a clearance [11] of 4.2 mL/min, a half-life ([11]; T1/2 alpha, Converted value) of 0.305 h and a half-life ([11]; T1/2 alpha, Selected Parameter Value) of 0.305 h. It also gave a half-life ([11]; T1/2 beta, Converted value) of 1.43 h and a half-life ([11]; T1/2 beta, Selected Parameter Value) of 1.43 h.
